# Tested on: dogs
# Assay: Previous experiment in dogs treated with the same formulations
# Format: in vivo, dog
# Method: 4 days prior to dosing, formulation were prepared containing: (1) 8 mg insulin, 150 mg EDTA, 125 mg SBTI in 1 ml fish oil in a soft-gel capsule (SwissCup), (2). 8 mg insulin, 150 mg EDTA, 150000 KIU Aprotinin in 1 ml fish oil in a soft-gel capsule (SwissCup), (3) 8 mg insulin, 150 mg EDTA, 150000 KIU Aprotinin, 125 mg SBTI in 1 ml fish oil in a soft-gel capsule (SwissCup). The formulations were stored in the refrigerator (4° C.) until dosing.
# Thus, the results regarding the reduction in blood glucose levels with insulin and a combination of protease inhibitors was unexpected.
# Thus, the results regarding the reduction in blood C-peptide levels with insulin and a combination of protease inhibitors was unexpected.
# The above described formulations are also active with 0.5 ml fish oil both in dogs and humans.
substance,measurement,value
Aprotinin,reaction of dogs to Aprotinin,do not react

# — patent US10058593B2, “Methods and compositions for oral administration of proteins” (Oramed Ltd., priority 2008, dated 2018)
